Measured values published in patent publication US12565497B2 (Hoffmann-La Roche Inc., priority 2020, dated 2026).

These molecules were tested against Recombinant human Mat2a (Homo sapiens (Human), UniProt P31153) (assay: Determination of Mat2A activity (384 well absorbance-based assay, Biomol Green)). Conditions: 12.5 nM Mat2A, 100 μM ATP and Methionine, 2% DMSO, 120 minutes at RT, absorbance at 635 nm; read-out: MAT2A_LEC IC50 (uM) (Num).
Assay type: biochemical
Outline: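 Recombinant human Mat2A (12.5 nM) preincubated 15 min at RT with compound (10 μM to 508 pM) in 50 mM HEPES pH 7.5, 50 mM KCl, 50 mM MgCl2, 0.01% Tween 20, 10 mM DTT, 2% DMSO. Reaction started with ATP and methionine (100 μM each), run 120 min at RT, then stopped with Biomol Green; A635 read after 30 min.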

Chain of Recombinant human Mat2a (P31153 whole entry): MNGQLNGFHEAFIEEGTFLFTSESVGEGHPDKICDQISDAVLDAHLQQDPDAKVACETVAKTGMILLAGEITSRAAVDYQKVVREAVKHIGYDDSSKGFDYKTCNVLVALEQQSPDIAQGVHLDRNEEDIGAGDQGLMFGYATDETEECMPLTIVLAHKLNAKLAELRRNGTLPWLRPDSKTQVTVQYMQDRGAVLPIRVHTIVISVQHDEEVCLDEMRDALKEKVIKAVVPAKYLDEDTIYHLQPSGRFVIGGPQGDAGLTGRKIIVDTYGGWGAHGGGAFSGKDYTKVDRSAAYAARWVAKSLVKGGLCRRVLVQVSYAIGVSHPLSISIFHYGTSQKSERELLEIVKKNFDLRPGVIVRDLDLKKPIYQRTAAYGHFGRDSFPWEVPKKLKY

Compound | IC50 [µM]
CC(=O)NCCCCNc1cnc(-c2ccc(S(C)(=O)=O)c(C)c2)c2c(C3CC3)n[nH]c12 [Example 103, N-[4-[[3-cyclopropyl-4-(3-methyl-4-methylsulfonyl-phenyl)-1H-pyrazolo[4,3-c]pyridin-7-yl]amino]butyl]acetamide] | 0.04
Cc1cc(-c2ncc(NCCCN)c3[nH]nc(C4CC4)c23)ccc1S(C)(=O)=O [Example 104, N′-[3-cyclopropyl-4-(3-methyl-4-methylsulfonyl-phenyl)-1H-pyrazolo[4,3-c]pyridin-7-yl]propane-1,3-diamine] | 0.04
Cc1cc(-c2c(C#N)ncc3[nH]nc(OC(F)F)c23)ccc1S(=O)(=O)C(F)F [Example 105, 3-(difluoromethoxy)-4-(4-((difluoromethyl)sulfonyl)-3-methylphenyl)-1H-pyrazolo[3,4-c]pyridine-5-carbonitrile] | < 0.013
Cc1cc(-c2c(C(=O)NC3COC3)ncc3[nH]nc(OC(F)F)c23)ccc1S(=O)(=O)C(F)F [Example 107, 3-(difluoromethoxy)-4-[4-(difluoromethylsulfonyl)-3-methyl-phenyl]-N-(oxetan-3-yl)-1H-pyrazolo[3,4-c]pyridine-5-carboxamide] | 0.013
CNC(=O)c1ncc2[nH]nc(OC(F)F)c2c1-c1ccc(S(=O)(=O)C(F)F)c(C)c1 [Example 108] | 0.015
CN=S(C)(=O)c1ccc2[nH]nc(C3CC3)c2c1-c1ccc(S(C)(=O)=O)c(C)c1 (centres unmarked) [Example 113, [3-cyclopropyl-4-(3-methyl-4-methylsulfonyl-phenyl)-1H-indazol-5-yl]-methyl-methylimino-oxo-λ^6-sulfane] | 0.31
Cc1cc(-c2c(S(=O)(=O)N(C)C)ccc3[nH]nc(C4CC4)c23)ccc1S(C)(=O)=O [Example 114, 3-cyclopropyl-N,N-dimethyl-4-(3-methyl-4-methylsulfonyl-phenyl)-1H-indazole-5-sulfonamide] | 0.03
CNS(=O)(=O)c1ccc2[nH]nc(C3CC3)c2c1-c1ccc(S(C)(=O)=O)c(C)c1 [Example 115, 3-cyclopropyl-N-methyl-4-(3-methyl-4-methylsulfonyl-phenyl)-1H-indazole-5-sulfonamide] | 0.03
Cc1cc(-c2c(C(N)=O)ncc3[nH]nc(OC(F)F)c23)ccc1S(=O)(=O)C1CC1 [Example 116, 4-(4-cyclopropylsulfonyl-3-methyl-phenyl)-3-(difluoromethoxy)-1H-pyrazolo[3,4-c]pyridine-5-carboxamide] | < 0.013

Other lines, results leading:

IC50 [µM] | Compound
< 0.013 | Cc1cc(-c2c(C(N)=O)ncc3[nH]nc(OC(F)F)c23)ccc1S(=O)(=O)C(F)F [Example 106, 3-(difluoromethoxy)-4-[4-(difluoromethylsulfonyl)-3-methyl-phenyl]-1H-pyrazolo[3,4-c]pyridine-5-carboxamide]
< 0.013 | CNC(=O)c1ncc2[nH]nc(OC(F)F)c2c1-c1ccc(S(C)(=O)=O)c(C)c1 [Example 110, 3-(difluoromethoxy)-N-methyl-4-(3-methyl-4-methylsulfonyl-phenyl)-1H-pyrazolo[3,4-c]pyridine-5-carboxamide]
< 0.013 | Cc1cc(-c2c(S(=O)(=O)C3COC3)ccc3[nH]nc(OC(F)F)c23)ccc1S(C)(=O)=O [Example 111, 3-(difluoromethoxy)-4-(3-methyl-4-methylsulfonyl-phenyl)-5-(oxetan-3-ylsulfonyl)-1H-indazole]
< 0.013 | Cc1cc(-c2c(S(=O)(=O)C3CC3)ccc3[nH]nc(OC(F)F)c23)ccc1S(C)(=O)=O [Example 118, 5-cyclopropylsulfonyl-3-(difluoromethoxy)-4-(3-methyl-4-methylsulfonyl-phenyl)-1H-indazole]
0.02 | Cc1cc(-c2c(S(C)(=O)=O)ccc3[nH]nc(OC(F)F)c23)c(F)cc1S(C)(=O)=O [Example 119, 3-(difluoromethoxy)-4-(2-fluoro-5-methyl-4-methylsulfonyl-phenyl)-5-methylsulfonyl-1H-indazole]
